Measured values from patent publication US9045506B2, “Diphosphonate compound and a method for preparing the same and an application of the same” (Chengdu Yunke Pharmaceutical Co., Ltd., priority 2010, dated 2015).
Marks after values point to notes of the source that are not given here.

Experiments:
osteoblasts MG63 = test: Osteoblast proliferation, MTT method; format: cell-based; conditions: for effect on MG63 cell proliferation (in words): cocultured 72 h, P<0.05 vs control groups; for Cell proliferation (MTT method), absorbance value under 490 nm: MG63, n = 4, x ± s
osteoblasts = test: Calcium deposition assay (alizarin red method); format: cell-based; conditions: for calcium deposition of osteoblasts (in words): lower / low concentration; for ARS concentration / calcium nodule size: 5 d, n = 4, x ± s
Procedure: Next, each well is added with 1 mL extract (extract preparation: 800 mL 10% acetic acid with 200 mL anhydrous ethyl alcohol), and extracted for 30 min-45 min, kept in dark, shaken slightly, the absorbance of 450 nm wavelength is measured and recorded. […] As alizarin red S and calcium are linear correlated, the calcium deposition is evaluated according to the alizarin red S concentration.

osteoclasts [1] = test: Osteoclast cell formation, counting of TRAP staining positive cells; format: cell-based, Japanese White Rabbit; conditions: for OC cell formation, TRAP staining positive cells counted: n = 6, x ± s
Procedure: (§1) The osteoclasts is cultured using a modified Chambers method, the new-born Japanese White Rabbit (1 week-age, provided by Experimental Animal Center of West China Medical Center of Sichuan University) is sacrificed by neck dislocation, and dipped in 75% ethanol for 5 min, long bones are taken out under sterile condition, and soft tissue, periosteum as well as osteoepiphysis on the bone surface are removed in D-Hanks balanced salt solution, clean the bone shaft with α-MEM 2 times, and then cut off the long bone longitudinally in α-MEM full media (containing 15% fetal calf serum, penicillin 100 U/mL, streptomycin […], 25 m MHEPES, pH 7.0-7.2), scrape the medullar cavity of the bone gently until it is clean, and use a pipette (5 mL syringe, 25 G syringe needle) to rinse the medullar cavity repeatedly with culture media, and then the rinse solution is collected and filtered with cell strainer to remove bone fragment, and centrifuged at 1000 rpm for 5 min, the precipitate is suspended by 10 mL α-MEM, a hematocytometer is used for cell counting, the cell density in suspension is adjusted to 1×10^7/mL, and inoculate the cells in 6-well plates, and co-cultured with glass slide or bone slice, after 60 min the culture media was replaced with α-MEM induction culture media (containing 15% fetal bovine serum, 10 nM 1, 25-(OH)2VitD3, penicillin 100 U/mL, streptomycin 100 μg/mL, 25 mM HEPES, pH 7.0-7.2), the culture media is replaced every 3 days.
Each group of osteoclasts is performed with tartrate-resistant acid phosphatase (TRAP) staining, observed in optical microscope, and the TRAP staining positive cells are counted.

osteoclasts [2] = test: Osteoclastic absorption, resorption pit size on bone slices; format: cell-based, Japanese White Rabbit; conditions: for formation and size of resorption pit of the osteoclast: 5 days' culture, n = 6, x ± s
Procedure: as §1

[3] = relative to Etidronate; cited from earlier work

With `O=c1c2ccccc2[se]n1-c1ccc(CC(O)(P(=O)(O)O)P(=O)(O)O)cc1` [SC-2, 4-(3-carbonylbenzo[d][1,2]selenazole-2(3H))-benzyl-methylene-1-hydroxyl-methylene diphosphonic acid] the “effect on MG63 cell proliferation (in words)” value (from here on “effect”) (osteoblasts MG63; 10^−9 mol/L) was “enhance MG63 cell proliferation” and the “calcium deposition of osteoblasts (in words)” value (shortened to “calcium deposition”) (osteoblasts) was “increases the calcium deposition of osteoblasts obviously”.

For `O=c1c2cc(Cl)ccc2[se]n1-c1ccc(CC(P(=O)(O)O)P(=O)(O)O)cc1` [SC-9, 4-(3-carbonyl-5-chlorobenzo[d][1,2]selenazole-2(3H))-benzyl-methylene diphosphonic acid], the “calcium deposition” value (osteoblasts) was “increases the calcium deposition of osteoblasts obviously”.

In the case of `O=c1c2ccccc2sn1-c1ccc(CC(P(=O)(O)O)P(=O)(O)O)cc1` [SC-15, 4-(3-carbonylbenzo[d][1,2]sulfonazole-2(3H))-benzyl-methylene diphosphonic acid], the “calcium deposition” value (osteoblasts) is reported as “increases the calcium deposition of osteoblasts obviously”.

In the case of `NCCCC(O)(P(=O)(O)O)P(=O)(O)O` [Alen, alendronate sodium, reference compound], the “cell proliferation activity (in words)” value (osteoblasts MG63; 10^−5, 10^−7 mol/L for 72 h, P<0.01 vs control groups) is reported as “cell proliferation activity is inhibited in different degrees”, the “influence on proliferation of MG63 cells (in words)” value (osteoblasts MG63; range of concentrations, within 48 h) is reported as “no influence on proliferation of MG63 cells” and the “formation of osteoclasts compared with blank (in words)” value (osteoclasts [1]; all concentrations) is reported as “can inhibit the formation of osteoclasts”. For the same molecule, the “calcium deposition” value (osteoblasts) was “not found that Alen group of low concentration can enhance the calcium deposition of osteoblasts” and the “resorption pits size compared with blank (in words)” value (osteoclasts [2]; p<0.01) was “decrease obviously”.

For `O=c1c2ccccc2[se]n1Cc1ccc(CC(O)(P(=O)(O)O)P(=O)(O)O)cc1` [SC-12, 4-(2-methylbenzo[d][1,2]selenazole-3 (2H)-ketone)-benzyl-1-hydroxyl-methylene diphosphonic acid], the “calcium deposition” value (osteoblasts) was “increases the calcium deposition of osteoblasts obviously”.

In the case of `O=c1c2ccccc2[se]n1-c1ccc(CCC(O)(P(=O)(O)O)P(=O)(O)O)cc1` [SC-14, 4-(3-carbonylbenzo[d][1,2]selenazole-2(3H))-phenylethyl-1-hydroxyl-methylene diphosphonic acid], the “calcium deposition” value (osteoblasts) is reported as “increases the calcium deposition of osteoblasts obviously”.

In the case of “4-(3-carbonylcyclohexano[d][1,2]selenazole-2(3H))-benzyl-1-hydroxyl-methylenediphosphonic acid [SC-8]”, the “Cell proliferation (MTT method), absorbance value under 490 nm” value (shortened to “Cell proliferation (MTT method)”) (osteoblasts MG63; 10^−5 mol/L, 24 h) is reported as 0.376 ± 0.009, the “Cell proliferation (MTT method)” value (osteoblasts MG63; 10^−5 mol/L, 48 h) is reported as 0.412 ± 0.007 and the “Cell proliferation (MTT method)” value (osteoblasts MG63; 10^−5 mol/L, 72 h) is reported as 0.342 ± 0.008. The “Cell proliferation (MTT method)” value (osteoblasts MG63; 10^−7 mol/L, 24 h) was 0.373 ± 0.010, the “Cell proliferation (MTT method)” value (osteoblasts MG63; 10^−7 mol/L, 48 h) was 0.439 ± 0.012 and the “Cell proliferation (MTT method)” value (osteoblasts MG63; 10^−7 mol/L, 72 h) was 0.709 ± 0.010. The “Cell proliferation (MTT method)” value (osteoblasts MG63; 10^−9 mol/L, 24 h) was 0.355 ± 0.009, the “Cell proliferation (MTT method)” value (osteoblasts MG63; 10^−9 mol/L, 48 h) was 0.421 ± 0.008 and the “Cell proliferation (MTT method)” value (osteoblasts MG63; 10^−9 mol/L, 72 h) was 0.773 ± 0.013. For the same molecule, the “effect” value (osteoblasts MG63; 10^−9 mol/L) was “enhance MG63 cell proliferation”, the “OC cell formation, TRAP staining positive cells counted” value (shortened to “OC cell formation”) (osteoclasts [1]; 10^−5 mol/L, 3 d) was 6 ± 2 and the “OC cell formation” value (osteoclasts [1]; 10^−5 mol/L, 5 d) was 9 ± 2. For the same molecule, the “OC cell formation” value (osteoclasts [1]; 10^−7 mol/L, 3 d) was 10 ± 2, the “OC cell formation” value (osteoclasts [1]; 10^−7 mol/L, 5 d) was 15 ± 4 and the “OC cell formation” value (osteoclasts [1]; 10^−9 mol/L, 3 d) was 12 ± 3. For the same molecule, the “OC cell formation” value (osteoclasts [1]; 10^−9 mol/L, 5 d) was 21 ± 6, the ARS concentration (osteoblasts; 10^−5 mol/L) was 309 ± 13 µg/mL and the calcium nodule size (osteoblasts; 10^−5 mol/L) was 1.32 ± 0.11 mm^2. It also gave an ARS concentration (osteoblasts; 10^−7 mol/L) of 354 ± 23 µg/mL, a calcium nodule size (osteoblasts; 10^−7 mol/L) of 1.66 ± 0.16 mm^2 and an ARS concentration (osteoblasts; 10^−9 mol/L) of 395 ± 17 µg/mL. The calcium nodule size (osteoblasts; 10^−9 mol/L) was 1.96 ± 0.19* mm^2, the “formation and size of resorption pit of the osteoclast” value (from here on “formation and size”) (osteoclasts [2]; 10^−5 mol/L) was 12.23 ± 3.06 and the “formation and size” value (osteoclasts [2]; 10^−7 mol/L) was 64.45 ± 8.77. The “formation and size” value (osteoclasts [2]; 10^−9 mol/L) was 118.25 ± 14.73.

In the case of `O=c1c2ccccc2[se]n1-c1ccc(CC(P(=O)(O)O)P(=O)(O)O)cc1` [SC-1, 4-(3-carbonylbenzo[d][1,2]selenazole-2(3H))-benzyl-methylene diphosphonic acid], the “effect” value (osteoblasts MG63; 10^−9 mol/L) is reported as “enhance MG63 cell proliferation” and the “calcium deposition” value (osteoblasts) is reported as “increases the calcium deposition of osteoblasts obviously”.

In the case of `O=c1c2ccccc2[se]n1-c1ccc(CCC(P(=O)(O)O)P(=O)(O)O)cc1` [SC-13, 4-(3-carbonylbenzo[d][1,2]selenazole-2(3H))-phenylethyl-methylenediphosphonic acid], the “calcium deposition” value (osteoblasts) is reported as “increases the calcium deposition of osteoblasts obviously”.

In the case of `O=P(O)(O)C(O)(Cn1ccnc1)P(=O)(O)O` [Zoledronate], the “bone affinity, times stronger than Etidronate” value [3] is given as “over 10000 times”.

In the case of `O=c1c2cc(Cl)ccc2[se]n1-c1ccc(CC(O)(P(=O)(O)O)P(=O)(O)O)cc1` [SC-10, 4-(3-carbonyl-5-chlorobenzo[d][1,2]selenazole-2(3H))-benzyl-1-hydroxyl-methylene diphosphonic acid], the “calcium deposition” value (osteoblasts) is reported as “increases the calcium deposition of osteoblasts obviously”.

For `O=c1c2ccccc2[se]n1Cc1ccc(CC(P(=O)(O)O)P(=O)(O)O)cc1` [SC-11, 4-(2-methylbenzo[d][1,2]selenazole-3 (2H)-ketone)-benzyl-methylene diphosphonic acid], the “calcium deposition” value (osteoblasts) was “increases the calcium deposition of osteoblasts obviously”.
